Read-outs that look alike come from different tables or passages of the source. Residues, ends and D or L forms follow the SMILES beside them.
Experiments:
[1] = set-up: species or system rats; conditions: rat, in vivo
Experimental: Tritium-labeled peptide FQSE (SEQ ID NO:10) was administered intranasally (i.n.) at a dose of 500 μg/kg diluted in saline. The administered sample contained 2000 pKi of tritium-labeled peptide [^3H] FQSE (SEQ ID NO:10). In 6 minutes after the administration, test samples of brain, blood and urine were obtained.
The study was carried out using tritium-labeled peptide FQSE (SEQ ID NO:10). For that, rats were administered with 2000 pKi [^3H] FQSE (SEQ ID NO:10) in dose 500 μg/kg (about 150 μg). The solutions administered to animals were prepared using saline solution. The volume of the solution for intranasal administration was 20 μl for rats.
In rat experiments, product FQSE (SEQ ID NO:10) was administered as a single, bolus, intranasal injection. Preliminarily, rats were anesthetized with chloral hydrate (300 mg/kg), and in 10 min, product FQSE (SEQ ID NO:10) was administered in volume 20 μl, in dose 500 μg/kg which contained 2000 pKi of labeled peptide [^3H]FQSE (SEQ ID NO:10). Rats were decapitated in 6 minutes after the product administration. […]
The quantitative analysis of peptides was performed with HPLC on column Kromasil C18, 4×150 mm in methanol gradient (0-40%), presence of 0.08% TEA and 0.02% HBA (heptafluorobutyric acid). The fractions containing peptide FQSE (SEQ ID NO:10) were collected, and their radioactivity was determined with liquid scintillation counting.

[2] = tested on: benzodiazepine site of GABAA receptors
Experimental: The incubation mixture (final volume 0.5 ml) contained 50 μl of […]

In the case of NC(=O)CC[C@H](NC(=O)[C@@H](N)Cc1ccccc1)C(=O)N[C@@H](CO)C(=O)N[C@@H](CCC(=O)O)C(=O)O [FQSE] (H-FQSE-OH), the blood-brain barrier penetration [1] is reported as “can penetrate blood-brain barrier”, the “Specific binding of [3H]-Flunitrazepam, relative to control levels” value (shortened to “Specific binding … relative to control levels”) ([2]; Diazepam 10^−6M + FQSE 10^−4M, 25 min pre-incubation + 30 min incubation, 4° C.) is reported as 101.07% and the “Specific binding … relative to control levels” value ([2]; Diazepam 10^−6M + FQSE 10^−4M, 25 min pre-incubation + 30 min incubation, 24° C.) is reported as 100.58%. For the same compound, the “Specific binding … relative to control levels” value ([2]; Diazepam 10^−6M + FQSE 10^−4M, 30 min incubation, 4° C.) was 100.27%, the “Specific binding … relative to control levels” value ([2]; Diazepam 10^−6M + FQSE 10^−4M, 30 min incubation, 24° C.) was 100.95% and the “Specific binding … relative to control levels” value ([2]; Diazepam 10^−6M + FQSE 10^−5M, 25 min pre-incubation + 30 min incubation, 4° C.) was 101.07%. For the same compound, the “Specific binding … relative to control levels” value ([2]; Diazepam 10^−6M + FQSE 10^−5M, 25 min pre-incubation + 30 min incubation, 24° C.) was 99.78%, the “Specific binding … relative to control levels” value ([2]; Diazepam 10^−6M + FQSE 10^−5M, 30 min incubation, 4° C.) was 100.04% and the “Specific binding … relative to control levels” value ([2]; Diazepam 10^−6M + FQSE 10^−5M, 30 min incubation, 24° C.) was 100.70%.
